# Test results from patent publication US9844546B2, “Antibody against human HIF hydroxylase” (OXFORD UNIVERSITY INNOVATION LIMITED, priority 2001, dated 2017).
# Where two headings read alike, the source gives them in different places. *1 amine or outer side, *2 acyl side, *3 side chain or, on linkers, in order; H or OH if unused. Where a SMILES comes first, the peptide text is derived from it. Bridges are numbered along the chain shown (N, C = ends). Roman numbers before positions name the chains, in order. [ ]: non-standard residue; d: D form. Actinocin(9to1) = Cc1c2oc3c(C)ccc(C(=O)[*:1])c3nc-2c(C(=O)[*:2])c(N)c1=O; NMeV = CN[C@H](C(=O)O)C(C)C; Sar = CNCC(=O)O
# How the values were obtained:
# [1] = system: HIF-α/pVHL interaction; assay: Interaction of HIF-1α and pVHL.HA reticulocyte IVTTs, anti-HA co-immunoprecipitation; assay type: biochemical, human; settings: 100 μM added to the HIF-1α IVTT
# Protocol: ^35S-Methionine labelled […] subunits and pVHL.HA were produced separately by IVTT (in vitro transcription and translation) in reticulocyte lysates. IVTTs were performed under different conditions, mixed, and assayed for interaction by anti-HA co-immunoprecipitation. These in vitro assays allowed analysis of the HIFα/pVHL interaction using the recombinant proteins.
# Labelled HIF-1α and pVHL.HA were generated separately in reticulocyte lysates (IVTT), in the presence or absence of Co (II), desferrioxamine, or Fe(II). Lysates were mixed in various combinations, and interactions assayed by anti-HA immunoprecipitation.
# • 1. G. L. Semenza, Genes Dev 14, 1983-91. (2000). • 2. N. V. Iyer, et al., Genes Dev. 12, 149-162 (1997). • 3. E. Maltepe, J. V. Schmidt, D. Baunoch, C. A. Bradfield, M. C. Simon, Nature 386, 403-407 (1997). • 4. G. L. Wang, B.-H. Jiang, E. A. Rue, G. L. Semenza, Proc. Natl. Acad. Sci. USA 92, 5510-5514 (1995). • 5. S. Salceda, J. Caro, J. Biol. Chem. 272, 22642-22647 (1997). • 6. L. E. Huang, J. Gu, M. Schau, H. F. Bunn, Proc. Natl. Acad. Sci. USA 95, 7987-7992 (1998). • 7. M. S. Wiesener, et al., Blood 92, 2260-2268 (1998). • 8. P. H. Maxwell, et al., Nature 399, 271-275 (1999). • 9. K. Iwai, et al., Proc. Natl. Acad. Sci. USA 96, 12436-12441 (1999). • 10. J. Lisztwan, G. Imbert, C. Wirbelauer, M. Gstaiger, W. Krek, Genes Dev 13, 1822-33 (1999). • 11. M. E. Cockman, et al., J Biol Chem (2000). • 12. M. Ohh, et al., Nat Cell Biol 2, 423-7. (2000). • 13. T. Kamura, et al., Proc Natl Acad Sci USA 97, 10430-5. (2000). • 14. K. Tanimoto, Y. Makino, T. Pereira, L. Poellinger, Embo J 19, 4298-309. (2000). • 15. M. A. Goldberg, S. P. Dunning, H. F. Bunn, Science 242, 1412-1415 (1988). • 16. G. L. Wang, G. L. Semenza, Blood 82, 3610-3615 (1993). • 17. G. L. Semenza, Cell 98, 281-284 (1999). • 18. Hypoxia (<0.1% oxygen) was obtained in a workstation with O2, CO2 and temperature control (Ruskinn Technologies, Leeds, UK). For hypoxic harvest, buffers were preincubated in the chamber overnight. […]
# [2] = system: EGL-9; assay: Recombinant EGL-9 modification of HIF-1, HA.VHL-1 capture; assay type: biochemical, C. elegans
# Protocol: Preincubation of C. elegans HIF-1 with worm extract or recombinant EGL-9 was for 30 min at 25° C. Preincubation of mammalian HIF-α polypeptides with cell extract or recombinant enzymes was at 37° C. for 10-30 min unless otherwise stated. For assays of recombinant enzymes, 2-oxoglutarate (2 mM), iron (100 μM), and ascorbate (2 mM) were added to the reaction buffer unless otherwise indicated. Reactions performed in hypoxia were in the stated atmospheric oxygen concentration (balance nitrogen) obtained using a controlled environment Invivo2 400 hypoxia work-station (Ruskinn Technologies) and buffers pre-equilibrated with the appropriate atmosphere. Reactions (50 μl) were performed in open Eppendorf tubes with mixing and stopped by the addition of 20 volumes desferrioxamine (100 μM}.
# To test whether EGL-9 could act directly on HIF-1, further preparations were made by baculoviral expression in insect cells and by expression as maltose binding protein ([…]) fusion proteins in E. coli. Since full length MBP/EGL-9 protein was insoluble when expressed in E. coli we prepared an N-terminal truncation containing residues 359-723 (MBP/ΔN.EGL-9) that preserved the predicted catalytic domain and had HIF.1 modifying activity when expressed as an IVTT. […]
# [3] = system: EGLN-2 and EGLN-3; assay: Modification and pVHL binding assay with reticulocyte lysate programmed with EGLN-2 or EGLN-3; assay type: biochemical, human; settings: desferrioxamine 200 μM, cobaltous chloride 200 μM
# Excerpt: Protein containing HIF-1 sequence (amino acids 549-582) was generated in a reticulocyte in vitro transcription translation reaction in the presence of 100 micromolar desferrioxamine, retrieved and then exposed to […] translates containing the putative enzymes as described above. These proteins contain the critical proline (564) which can be modified by hydroxylation and which enables recognition by von Hippel Lindau tumour suppressor protein (pVHL).
# The modification of the HIF-1 sequence was assayed by the binding of the HIF-1 to radiolabelled pVHL, generated by in vitro transcription and translation of a pcDNA3 vector containing the human wild type pVHL open reading frame in a rabbit reticulocyte lysate in the presence of ^35S-methionine.
# Modification and pVHL binding assays were performed as described above. Rabbit reticulocyte lysate was programmed with pcDNA3 based plasmids containing no insert, an insert encoding the full open reading frame of the human homologue of C. elegans Egl-9 known as EGLN-2, or an insert encoding the full open reading frame of the human homologue known as EGLN-3. Modification was performed in the absence of additives, in the presence of oxalylglycine, oxalylglycine plus 2-oxoglutarate, 200 μM desferrioxamine or 200 μM cobaltous chloride.
# [4] = system: rat SM-20 and human EGLN1 (PHD2), EGLN2 (PHD1), EGLN3 (PHD3); assay: Recombinant enzymes (reticulocyte IVTT) promoting pVHL interaction with HIF-1α residues 549-582; assay type: biochemical; settings: all enzymes
# Protocol: To test the role of these gene products in regulating the interaction between human HIFα sub-units and the VHL E3 ligase complex, we first produced the proteins by reticulocyte IVTT. […] After incubation with relevant enzyme, HIF-α substrates were mixed with extracts from 786-0/VHL cells that stably express HA tagged human pVHL, and tested for interaction by anti-HA immunoprecipitation.
# [5] = system: collagen prolyl-hydroxylase (CPH); settings: cited from earlier work
# [6] = system: HIF hydroxylase (HPH activity); assay: HIF hydroxylase (HPH) inhibition, statements of the description; assay type: biochemical
# [7] = system: intact cells; assay: Entry into intact cells; assay type: cell-based
# Excerpt: In this Example it is shown that HIF-1α protein and the endogenous HIF target gene encoding carbonic anhydrase 9 (CA-9) are induced by exposure of cells to the PHD inhibitor, dimethyl oxalylglycine. […] The esterified form, dimethyloxalylglycine, has therefore been used to deliver the compound to tissue culture cells.
# Application of an esterified form, dimethyloxalylglycine, to tissue culture cells results in stabilisation of HIF alpha chains (Example 1) and activation of transcription of endogenous HIF target genes (Example 5).
# [8] = system: HIF-α prolyl-hydroxylase (HIF-PH) of cell extract; assay: Modifying activity (HIF-PH) of cell extract on HIF substrate (Gal/HIF-1α549-582/VP16 or 19:WT), pVHL capture assay; assay type: biochemical, mammalian
# Method in brief: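 Immunopurified HIF-1α substrate (19:WT polypeptide or Gal/HIF-1α549-582/VP16) on beads was incubated with cell extract under test conditions, washed, and tested for capture of 35S-labelled IVTT pVHL, visualised by fluorography. Hydroxylation activity was inferred from pVHL capture.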
# [9] = system: HeLa cells; assay: Hypoxic induction of total HIF-PH activity in HeLa cell lysates, pVHL capture assay; assay type: cell-based, human; settings: hypoxia 16 hours
SMILES,capture of HIF-1α by pVHL.HA [1],effect on recombinant EGL-9 activity [2],Enzyme activity (modification of HIF-1 to VHL binding form) [3],inhibition of enzyme activity promoting pVHL interaction with HIF-1α 549-582 [4],inhibition of CPH [5],inhibition of HIF hydroxylase / HPH [6],inhibition of HIF hydroxylase / HPH ([6]; listed as N-oxaloglycine),ability to enter intact cells [7],"Inhibition of pVHL capture ([8]; 0-2000 μM inhibitor, RCC4 cell extract, 5 or 100 μM FeCl2)","inhibition of modifying activity of cell extract on 19:WT (pVHL capture) ([8]; N-oxalylglycine 0.2-1 mM, overcome by 5 mM 2-oxoglutarate)",effect on induction of total HIF-PH activity by hypoxia [9]
"[Cl-].[Cl-].[Co+2] [Co(II), cobaltous chloride]",greatly diminished capture,direct inhibition,diminished,strongly inhibited,–,–,–,–,–,–,–
O=C(O)CNC(=O)C(=O)O [N-oxalylglycine],–,–,diminished,strongly inhibited,inhibitor,act as inhibitors,inhibitor,incapable of entering intact cells,increased with the concentration of inhibitor,completely inhibit,–
"Cc1c2oc3c(C)ccc(C(=O)N[C@@H]4C(=O)N[C@H](C(C)C)C(=O)N5CCC[C@H]5C(=O)N(C)CC(=O)N(C)[C@@H](C(C)C)C(=O)O[C@@H]4C)c3nc-2c(C(=O)N[C@@H]2C(=O)N[C@H](C(C)C)C(=O)N3CCC[C@H]3C(=O)N(C)CC(=O)N(C)[C@@H](C(C)C)C(=O)O[C@@H]2C)c(N)c1=O [actinomycin D] (I: T[dV]P[Sar][NMeV] / II: T[dV]P[Sar][NMeV]; ester I:1-I:C, II:1-II:C; linker I:N-II:N via Actinocin(9to1))",–,–,–,–,–,–,–,–,–,–,blocked
